The source of these data is ChEMBL document CHEMBL5104192, “Late-Stage Functionalization with Cysteine Staples Generates Potent and Selective Melanocortin Receptor-1 Agonists” (J Med Chem, 2022).

*1 amine or outer side, *2 acyl side, *3 side chain or, on linkers, in order; H or OH if unused. Where a SMILES comes first, the peptide text is derived from it. Bridges are numbered along the chain shown (N, C = ends). [ ]: non-standard residue; d: D form. X6 = O=C(NCCOCCOCCNC(=O)c1ccc2c(c1)C(=O)OC21c2ccc(O)cc2Oc2cc(O)ccc21)OCC1C2CCc3c([*:1])nnc([*:2])c3CCC21; X5 = O=C(O)CCOCCOCCOCCOCCNC(=O)OCC1C2CCc3c([*:1])nnc([*:2])c3CCC21; X4 = C#CCCCCN1C(=O)C([*:1])=C([*:2])C1=O; X3 = NC(=O)/C(=C(\C(=O)O)[*:2])[*:1]; Nle = CCCC[C@H](N)C(=O)O Bounds are passed on as bounds.

The target in assay [1] is T1, Melanocyte-stimulating hormone receptor (Homo sapiens, UniProt Q01726). Briefly: Displacement of [125I]-NDP-alpha-MSH from human MC1R expressed in HEK2936E cell membrane measured after 16 to 23 hrs by 1450 microbeta trilux scintillation proximity assay. It is filed as cell membranes. Background: Displacement assays read how much labelled ligand stays bound in the presence of the test substance.
T1 sequence (Q01726 whole entry): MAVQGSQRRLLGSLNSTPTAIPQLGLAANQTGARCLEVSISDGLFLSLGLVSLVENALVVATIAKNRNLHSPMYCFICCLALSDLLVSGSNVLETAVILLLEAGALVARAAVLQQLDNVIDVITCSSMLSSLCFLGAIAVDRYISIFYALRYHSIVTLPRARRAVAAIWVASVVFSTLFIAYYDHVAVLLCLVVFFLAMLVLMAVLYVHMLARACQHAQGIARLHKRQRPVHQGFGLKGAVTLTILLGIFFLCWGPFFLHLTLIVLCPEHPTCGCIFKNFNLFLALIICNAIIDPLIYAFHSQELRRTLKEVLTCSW

For assay [2], the target named is T2, Melanocortin receptor 3 (Homo sapiens, UniProt P41968). Briefly: Displacement of [125I]-NDP-alpha-MSH from human MC3R expressed in HEK2936E cell membrane measured after 16 to 23 hrs by 1450 microbeta trilux scintillation proximity assay. It is filed as cell membranes.
T2 sequence (P41968 whole entry): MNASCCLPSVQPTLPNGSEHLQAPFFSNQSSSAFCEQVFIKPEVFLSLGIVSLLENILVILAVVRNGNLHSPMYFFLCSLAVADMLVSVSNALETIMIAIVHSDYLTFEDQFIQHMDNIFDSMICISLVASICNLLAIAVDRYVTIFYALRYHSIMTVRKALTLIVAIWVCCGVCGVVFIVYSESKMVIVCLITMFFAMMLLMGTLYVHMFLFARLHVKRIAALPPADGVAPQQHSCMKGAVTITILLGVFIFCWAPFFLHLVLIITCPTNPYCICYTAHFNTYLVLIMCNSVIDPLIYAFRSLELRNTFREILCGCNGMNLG
For assay [3], the target named is T3, Melanocortin receptor 4 (Homo sapiens, UniProt P32245). Briefly: Displacement of [125I]-NDP-alpha-MSH from human MC4R expressed in HEK2936E cell membrane measured after 16 to 23 hrs by 1450 microbeta trilux scintillation proximity assay. It counts as cell membranes.
T3 sequence (P32245 whole entry): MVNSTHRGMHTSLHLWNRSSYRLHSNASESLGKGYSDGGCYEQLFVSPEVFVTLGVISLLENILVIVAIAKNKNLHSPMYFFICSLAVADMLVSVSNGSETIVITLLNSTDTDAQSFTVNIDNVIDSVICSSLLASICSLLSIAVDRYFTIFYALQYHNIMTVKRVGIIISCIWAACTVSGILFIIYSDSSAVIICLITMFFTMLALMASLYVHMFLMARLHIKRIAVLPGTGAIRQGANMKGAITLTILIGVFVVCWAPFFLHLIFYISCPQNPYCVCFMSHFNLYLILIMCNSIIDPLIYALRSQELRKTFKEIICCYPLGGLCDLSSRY
Assay [4] deals with T1, Melanocyte-stimulating hormone receptor. Briefly: Agonist activity at human MC1R expressed in HEK2936E cells assessed as cAMP production in presence of IBMX by time resolved fluorescence assay. It is filed as functional, cell-based.
In assay [5] the target is T2, Melanocortin receptor 3. Briefly: Agonist activity at human MC3R expressed in HEK2936E cells assessed as cAMP production in presence of IBMX by time resolved fluorescence assay. It counts as functional, cell-based. A general note: cAMP levels reflect the balance of adenylyl cyclase and phosphodiesterase activity.
Assay [6] has as its target T3, Melanocortin receptor 4. The assay is described as follows: Agonist activity at human MC4R expressed in HEK2936E cells assessed as cAMP production in presence of IBMX by time resolved fluorescence assay. It is filed as functional, cell-based.
The species named for assay [7] is Homo sapiens. The assay is described as follows: Selectivity ratio of Ki for human MC3R to Ki for human MC1R.
For assay [8], the species on record is Homo sapiens. Briefly: Selectivity ratio of Ki for human MC4R to Ki for human MC1R.
The species entered for assay [9] is Homo sapiens. The assay is described as follows: Selectivity ratio of EC50 for human MC3R to EC50 for human MC1R.
The species entered for assay [10] is Homo sapiens. Briefly: Selectivity ratio of EC50 for human MC4R to EC50 for human MC1R.

Regarding `CCCC[C@@H]1NC(=O)[C@@H]2CS/C(C(=O)O)=C(/C(N)=O)SC[C@H](NC(=O)[C@H](CCCNC(=N)N)NC(=O)[C@H](CC(=O)O)NC(=O)[C@H](Cc3c[nH]c4ccccc34)NC(=O)[C@H](CCCNC(=N)N)NC(=O)[C@H](Cc3ccccc3)NC(=O)[C@H](Cc3cnc[nH]3)NC(=O)CNC1=O)C(=O)N[C@@H](Cc1cnc[nH]1)C(=O)N[C@@H](Cc1ccccc1)C(=O)N[C@@H](CCCNC(=N)N)C(=O)N[C@@H](Cc1c[nH]c3ccccc13)C(=O)N[C@@H](CCCNC(=N)N)C(=O)N2` (cyclo(CHFRWRC[Nle]GHFRWDR); linker 1-7 via X3), the Ki – broadly, the equilibrium dissociation constant of an inhibitor or competing ligand from its target – in assay [1] is 9.77 nM; in assay [2], 295 nM; in assay [3], 302 nM. For the same molecule, the EC50 was 0.479 nM in [4] (read-out: pEC50 (converted)), 2.57 nM in [5] and 11.2 nM in assay [6]. Besides, the Ratio Ki is 30 in [7] and 31 in assay [8]. Also, the Ratio EC50 in assay [9] amounted to 5; in assay [10] it was 23.
As for `C#CCCCCN1C(=O)C2=C(SC[C@@H]3NC(=O)[C@H](CCCNC(=N)N)NC(=O)[C@H](CC(=O)O)NC(=O)[C@H](Cc4c[nH]c5ccccc45)NC(=O)[C@H](CCCNC(=N)N)NC(=O)[C@H](Cc4ccccc4)NC(=O)[C@H](Cc4cnc[nH]4)NC(=O)CNC(=O)[C@H](CCCC)NC(=O)[C@H](CS2)NC(=O)[C@H](CCCNC(=N)N)NC(=O)[C@H](Cc2c[nH]c4ccccc24)NC(=O)[C@H](CCCNC(=N)N)NC(=O)[C@H](Cc2ccccc2)NC(=O)[C@H](Cc2cnc[nH]2)NC3=O)C1=O` (cyclo(CHFRWRC[Nle]GHFRWDR); linker 1-7 via X4), the results for the Ki in assay [1], in [2] and in assay [3] were 1.78 nM, 16.6 nM and 61.7 nM, respectively. The EC50 in [4] (read-out: pEC50 (converted)) is 0.0813 nM; in assay [5], 0.158 nM; in assay [6] it was 2.19 nM. The Ratio Ki in assay [7] was determined as 9; in assay [8], 35. Moreover, the Ratio EC50 in assay [9] was 2; in assay [10] it was 27.
In the case of `CCCC[C@@H]1NC(=O)[C@@H]2CSc3nnc(c4c3CCC3C(CC4)C3COC(=O)NCCOCCOCCOCCOCCC(=O)O)SC[C@H](NC(=O)[C@H](CCCNC(=N)N)NC(=O)[C@H](CC(=O)O)NC(=O)[C@H](Cc3c[nH]c4ccccc34)NC(=O)[C@H](CCCNC(=N)N)NC(=O)[C@H](Cc3ccccc3)NC(=O)[C@H](Cc3cnc[nH]3)NC(=O)CNC1=O)C(=O)N[C@@H](Cc1cnc[nH]1)C(=O)N[C@@H](Cc1ccccc1)C(=O)N[C@@H](CCCNC(=N)N)C(=O)N[C@@H](Cc1c[nH]c3ccccc13)C(=O)N[C@@H](CCCNC(=N)N)C(=O)N2` (stereo partly specified) (cyclo(CHFRWRC[Nle]GHFRWDR); linker 1-7 via X5), the results for the Ki in assay [1], in [2] and in assay [3] were 0.631 nM, 35.5 nM and 166 nM, respectively. In addition, the EC50 in assay [4] (read-out: pEC50 (converted)) was 0.0891 nM; in assay [5], 0.603 nM; in assay [6], 10.5 nM. Besides, the Ratio Ki in assay [7] came out at 56; in assay [8], 263. The Ratio EC50 came out at 7 in assay [9] and 117 in assay [10].
Regarding `CCCC[C@@H]1NC(=O)[C@@H]2CSc3nnc(c4c3CCC3C(CC4)C3COC(=O)NCCOCCOCCNC(=O)c3ccc4c(c3)C(=O)OC43c4ccc(O)cc4Oc4cc(O)ccc43)SC[C@H](NC(=O)[C@H](CCCNC(=N)N)NC(=O)[C@H](CC(=O)O)NC(=O)[C@H](Cc3c[nH]c4ccccc34)NC(=O)[C@H](CCCNC(=N)N)NC(=O)[C@H](Cc3ccccc3)NC(=O)[C@H](Cc3cnc[nH]3)NC(=O)CNC1=O)C(=O)N[C@@H](Cc1cnc[nH]1)C(=O)N[C@@H](Cc1ccccc1)C(=O)N[C@@H](CCCNC(=N)N)C(=O)N[C@@H](Cc1c[nH]c3ccccc13)C(=O)N[C@@H](CCCNC(=N)N)C(=O)N2` (stereo partly specified) (cyclo(CHFRWRC[Nle]GHFRWDR); linker 1-7 via X6), the inhibitory constant (Ki) was 2.82 nM in [1], 30.9 nM in [2] and 263 nM in [3]. Moreover, the EC50 in assay [4] (read-out: EC50) was < 0.3 nM; in assay [4] (read-out: pEC50 (converted)), 0.24 nM; in assay [5], 0.955 nM; in assay [6] it was 16.6 nM. Moreover, the Ratio Ki was found to be 11 in assay [7] and 93 in assay [8]. Besides, the figures for the Ratio EC50 in assay [9] and in assay [10] were 4 and 69, respectively.
